The term Emax denotes the maximal effect, on the per cent scale that the assay sets.

The target in assay [1] is T1, human recombinant 5-HT2AR (Homo sapiens, UniProt P28223).
T1 construct: host or cells: CHO-K1
The assay is described as follows: IP1 functional assay (5-HT2AR). It is filed as cell-based. The conditions noted are these: 5-HT2A, functional assay relevant to G protein activation (IP1), agonist mode.
Procedure: IP1 Assay (5-HT2AR and 5-HT2CR). The 5-HT2AR and 5-HT2CR IPOne HTRF assays were performed at Epics
Therapeutics S.A. (Belgium, FAST-0505I) using conventional methods. Experiments were performed using the free bases
of (+)-JRT and (–)-JRT. Briefly, CHO-K1 cells expressing human recombinant 5-HT2AR grown to mid-log phase in culture
media without antibiotics were detached with PBS-EDTA, centrifuged, and resuspended in medium without antibiotics
buffer. Then, 20,000 cells were distributed in a 96-well plate and incubated overnight at 37 °C with 5% CO2. For agonist
were added to each well. The plate was incubated for 60 min at 37 °C with 5% CO2. After addition of the lysis buffer containing
IP1-d2 and anti-IP1 cryptate detection reagents, plates were incubated for 1 h at room temperature and fluorescence ratios
were measured according to the manufacturer’s specifications using the HTRF kit.
IP1 Assay (5-HT2BR). […]
Following incubation, the cells are lysed and the fluorescence acceptor (D2-
labeled IP1) and fluorescence donor (anti-IP1 antibody labeled with europium cryptate) were added. […]
temperature, the fluorescence transfer was measured at lex = 337 nm and lem = 620 and 665 nm using a microplate
reader (Envision, Perkin Elmer). The IP1 concentration was determined by dividing the signal measured at 665 nm by that
measured at 620 nm (ratio). […]

The subject of assay [2] is female C57BL/6J mice, medial prefrontal cortex. The assay is described as follows: In vivo spinogenesis and synaptogenesis (S3EM, layer 1 mPFC). The conditions noted are these: 24 h.
For the next assay, the system named is C57BL/6J mice. Description: Amphetamine-induced locomotion. The assay is classed as in vivo. The conditions noted are these: (+)-JRT 1 mg/kg + AMPH 3 mg/kg. The procedure:
Figure S11. […] (A) Pretreatment with (+)-JRT (1 mg/kg,
IP) can block AMPH-induced hyperlocomotion in female, but not male, mice. (B) Pretreatment with (+)-JRT (1 mg/kg, IP) […]
AMPH = (+)-amphetamine; PCP = phencyclidine; VEH = vehicle; ns = not significant. *p < 0.05, **p < 0.01, ***p < 0.001, ****p < 0.0001, as compared to the comparator(s) indicated by a horizontal bar. See Methods and SI Appendix, Table S1 for full details on statistics.
(1 picture or pasted object on this page, not shown here)
Amphetamine-Induced Locomotion. The amphetamine-induced hyperlocomotion assay was performed using male and female C57BL/6J mice that were approximately 8 weeks old at the time of the experiments. Animals were first placed in the test arena (40 cm x 40 cm) for 15 min to obtain a basal reading of locomotion and habituate them to the testing arena.
Next, animals were administered (+)-JRT (1 mg/kg) or VEH (2.5 mL/kg, i.p) and placed back in the test arena. After 15 min, the animals were administered (+)-amphetamine (3 mg/kg) or VEH (2.5 mL/kg) and placed back in the test arena for 60 minutes. Locomotion during the entire experiment was quantified using ANYmaze Video Tracking System, version 7.07 (Stoelting Co.). The test arena was cleaned thoroughly with 70% ethanol between trials. […]
Reads were aligned to the GRCm39 genome assembly using STAR, processed with Picard, and counted with the Subread software. Transcript inclusion criteria consisted of a minimum raw expression level of 25 transcripts in a minimum of 4 samples. Surrogate variable analysis was conducted with the sva package 2023 release v3.5.0 in R and normalization and differential expression analysis was performed with DESeq2 v4.3 with a baseMean threshold of 10. Heatmaps were created with the pheatmap v1.0.12 with sample-wise z-scores plotted and both row and column grouping allowed using pearson's distances and ward.D for clustering. Gene-wise selection criteria for heatmaps were a baseMean expression threshold of 50 to focus on robustly expressed genes, p value < 0.05, and presence in the top 250 genes sorted by absolute value of log2FC. Additionally, z score was capped at 2 for visualization purposes. Schizophrenia gene sets were extracted from a recent TWAS study (30).
For Figure S8G, the TWAS set was filtered for FDR < 0.01. Permutation testing was conducted to quantify the overlap of top genes from schizophrenia TWAS with the perm_test function from the bulkWarehouse package 2023 release v1.2.7.
Briefly, the intersection of top differentially expressed genes and top TWAS genes is compared to an empirical distribution created by calculating the intersection with our top DEGs when randomly sampling candidate genes from our dataset equal to the size of the TWAS sample. […]

T1 sequence (P28223 whole entry): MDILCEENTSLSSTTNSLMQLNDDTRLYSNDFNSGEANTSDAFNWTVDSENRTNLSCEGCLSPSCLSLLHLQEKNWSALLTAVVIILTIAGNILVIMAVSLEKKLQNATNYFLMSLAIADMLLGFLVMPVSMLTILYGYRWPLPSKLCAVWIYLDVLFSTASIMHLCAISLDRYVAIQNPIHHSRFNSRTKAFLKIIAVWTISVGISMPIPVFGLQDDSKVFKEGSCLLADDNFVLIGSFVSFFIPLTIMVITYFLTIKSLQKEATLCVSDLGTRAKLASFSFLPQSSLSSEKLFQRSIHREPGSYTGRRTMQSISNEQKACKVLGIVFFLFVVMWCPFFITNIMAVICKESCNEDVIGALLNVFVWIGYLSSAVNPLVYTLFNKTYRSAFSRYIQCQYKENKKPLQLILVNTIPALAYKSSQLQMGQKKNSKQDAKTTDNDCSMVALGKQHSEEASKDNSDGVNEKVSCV

On to `CCN(CC)C(=O)[C@@H]1C=C2c3cccc4ccn(c34)C[C@H]2N(C)C1` [(+)-JRT], for which, in assay [1], the Emax was determined as 81%. In addition, the Synapse size entry in assay [2] (1 mg/kg IP) is recorded as “remained unchanged”. In assay [2] (single administration 1 mg/kg IP, S3EM), the “Increase in synapse density within the mPFC” value was found to be 18%. Further, the “Increase in dendritic spine density within the mPFC” value in assay [2] (single administration 1 mg/kg IP, layer 1, S3EM) stood at 46%. For the same compound, the “Locomotion (Figure 11A Females)” value with C57BL/6J mice (female mice, VEH + VEH 101.9 ± 15.04) turned out to be 217.2 ± 47.70. Moreover, the “Locomotion (Figure 11A Males)” value with C57BL/6J mice (male mice, VEH + VEH 59.80 ± 4.206) came to 361.2 ± 35.54.

These data come from publication PMC12037037 (Proceedings of the National Academy of Sciences of the …, 2025).
